Experimental data from patent publication US20260207563A1, “UREA COMPOUNDS AS ACTIVATORS OF POTASSIUM CHANNELS KV7.2/7.3 USEFUL IN THE TREATMENT OF CNS AND PNS DISORDERS” (ANGELINI PHARMA S.P.A., priority 2022, published 2026).

What was measured:
Type in all cases: cell-based
[1] = target: T1, heteromeric KV7.2/KV7.3 channels (KCNQ2, KCNQ3) (Homo sapiens, UniProt O43525+O43526); assay: Automated patch-clamp (Sophion Qube 384) potency assay against KV7.2/KV7.3 channels; conditions: CHO-K1/Kv7.2/Kv7.3 cells; for EC50: EC50 from concentration-response of shift in Vhalf, 10 concentrations up to 30 μM, read-out: Kv7.2/7.3 EC50; for Kv7.2/7.3 ΔV1/2: maximal shift in the Vhalf from the top of the curve
T1 construct: expressed in transfected cells; host or cells: CHO-K1
Procedure, shortened: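 Activator potency: EC50 from 4-parameter logistic fit of mean Vhalf shift across ten 1-in-3 dilutions starting at 30 μM (n=4), with DMSO (typically 0.3%) control. Currents recorded by leak-subtracted whole-cell clamp of stable CHO-K1 KV7.2/KV7.3 cells, held at −80 mV, stepped −100 to +20 mV then 0 mV tails.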

[2] = target: T2, homomeric KV7.4 channel (KCNQ4) (Homo sapiens, UniProt P56696); assay: Automated patch-clamp (Qube) counter-screening assay against KV7.4 channel; conditions: CHO-K1 cells expressing KV7.4; class by maximal shift in the Vhalf at 30 μM
T2 construct: host or cells: CHO-K1
Procedure, shortened: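 EC50 and maximal shift in half-activation voltage come from 4-parameter logistic fits of mean Vhalf shifts. The series had ten 1-in-3 concentrations, highest 30 μM, each tested in quadruplicate. Recordings used automated Qube patch clamp on a stable CHO-K1 line expressing KCNQ4, and selectivity was judged from the 30 μM Vhalf shift.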

[3] = target: T3, heteromeric KV7.3/KV7.5 channel (KCNQ3, KCNQ5) (Homo sapiens, UniProt O43525+Q9NR82); assay: Automated patch-clamp counter-screening against KV7.3/KV7.5 channel; conditions: HEK293 cells expressing Kv7.3/KV7.5; class by maximal shift in the Vhalf at 30 μM
T3 construct: host or cells: HEK293
Procedure, shortened: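 Potency came from a 4-parameter logistic fit of mean voltage-of-half-activation shifts, yielding EC50 and maximal shift; selectivity was judged on the shift at 30 μM. Compounds were applied at ten 3-fold dilutions from 30 μM in quadruplicate to HEK293 cells stably carrying Kv7.3 with tet-inducible Kv7.5.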

Row | SMILES | EC50 [1] [nM] | Kv7.2/7.3 ΔV1/2 [1] [mV] | Kv7.4 selectivity criteria [2] | Kv7.3/7.5 selectivity criteria [3]
1 | O=C(NCc1ccnc(OCC(F)(F)F)c1)N[C@H]1c2ccccc2C[C@H]1CO [Compound 151] | 11200 | 23.51 | A (Selective compounds showed Kv7.4 and/or Kv7.3/7.5 ΔV1/2 equal to or lower than 15 mV (letter A in table 3)) | A (Selective compounds showed Kv7.4 and/or Kv7.3/7.5 ΔV1/2 equal to or lower than 15 mV (letter A in table 3))
2 | O=C(NCc1ccnc(OCC(F)(F)F)c1)N[C@H]1c2ccccc2C[C@H]1O [Compound 155] | 9460 | 30.26 | B (Non-selective compounds showed Kv7.4 and/or Kv7.3/7.5 ΔV1/2 higher than 15 mV (letter B in table 3)) | B (Non-selective compounds showed Kv7.4 and/or Kv7.3/7.5 ΔV1/2 higher than 15 mV (letter B in table 3))
3 | O=C(NCc1ccnc(OCC(F)(F)F)c1)N[C@@H]1CCCc2ccccc21 [Compound 156] | 1850 | 55.46 | B (Non-selective compounds showed Kv7.4 and/or Kv7.3/7.5 ΔV1/2 higher than 15 mV (letter B in table 3)) | B (Non-selective compounds showed Kv7.4 and/or Kv7.3/7.5 ΔV1/2 higher than 15 mV (letter B in table 3))
4 | O=C(NCc1ccnc(OCC(F)(F)F)c1)NCC1CCc2ccccc21 (stereo not shown) [Compound 157] | 4010 | 18.8 | A (Selective compounds showed Kv7.4 and/or Kv7.3/7.5 ΔV1/2 equal to or lower than 15 mV (letter A in table 3)) | A (Selective compounds showed Kv7.4 and/or Kv7.3/7.5 ΔV1/2 equal to or lower than 15 mV (letter A in table 3))
5 | N#Cc1cccc2c1CC[C@H]2NC(=O)NCc1ccnc(OCC(F)(F)F)c1 [Compound 158] | 2550 | 31.18 | B (Non-selective compounds showed Kv7.4 and/or Kv7.3/7.5 ΔV1/2 higher than 15 mV (letter B in table 3)) | B (Non-selective compounds showed Kv7.4 and/or Kv7.3/7.5 ΔV1/2 higher than 15 mV (letter B in table 3))
6 | N#Cc1cccc2c1CC[C@@H]2NC(=O)NCc1ccnc(OCC(F)(F)F)c1 [Compound 160] | 3180 | 25.41 | A (Selective compounds showed Kv7.4 and/or Kv7.3/7.5 ΔV1/2 equal to or lower than 15 mV (letter A in table 3)) | A (Selective compounds showed Kv7.4 and/or Kv7.3/7.5 ΔV1/2 equal to or lower than 15 mV (letter A in table 3))
7 | C#CCOc1cc(CNC(=O)NCC2CCC(F)(F)CC2)ccn1 [Compound 161] | 7000 | 26.66 | A (Selective compounds showed Kv7.4 and/or Kv7.3/7.5 ΔV1/2 equal to or lower than 15 mV (letter A in table 3)) | A (Selective compounds showed Kv7.4 and/or Kv7.3/7.5 ΔV1/2 equal to or lower than 15 mV (letter A in table 3))
8 | O=C(NCc1ccnc(OCC(F)(F)F)c1)N[C@@H]1COc2ccc(F)cc21 [Compound 165] | 2660 | 28.4 | A (Selective compounds showed Kv7.4 and/or Kv7.3/7.5 ΔV1/2 equal to or lower than 15 mV (letter A in table 3)) | A (Selective compounds showed Kv7.4 and/or Kv7.3/7.5 ΔV1/2 equal to or lower than 15 mV (letter A in table 3))
9 | COc1ccc2c(c1)OC[C@H]2NC(=O)NCc1ccnc(OCC(F)(F)F)c1 [Compound 166] | 8430 | 52.09 | A (Selective compounds showed Kv7.4 and/or Kv7.3/7.5 ΔV1/2 equal to or lower than 15 mV (letter A in table 3)) | A (Selective compounds showed Kv7.4 and/or Kv7.3/7.5 ΔV1/2 equal to or lower than 15 mV (letter A in table 3))

Now from value to compound, other results behind:

Row | EC50 [1] [nM] | Kv7.2/7.3 ΔV1/2 [1] [mV] | SMILES | Kv7.4 selectivity criteria [2] | Kv7.3/7.5 selectivity criteria [3]
10 | 1820 | 15.43 | COCC1(NC(=O)NCc2ccnc(OCC(F)(F)F)c2)Cc2ccccc2C1 [Compound 148] | A (Selective compounds showed Kv7.4 and/or Kv7.3/7.5 ΔV1/2 equal to or lower than 15 mV (letter A in table 3)) | A (Selective compounds showed Kv7.4 and/or Kv7.3/7.5 ΔV1/2 equal to or lower than 15 mV (letter A in table 3))
11 | 618 | 30.8 | O=C(NCc1ccnc(OCC(F)(F)F)c1)NC1CSc2ccccc2C1 (stereo not shown) [Compound 149] | A (Selective compounds showed Kv7.4 and/or Kv7.3/7.5 ΔV1/2 equal to or lower than 15 mV (letter A in table 3)) | A (Selective compounds showed Kv7.4 and/or Kv7.3/7.5 ΔV1/2 equal to or lower than 15 mV (letter A in table 3))
12 | 1310 | 30.15 | O=C(NCc1ccnc(OCC(F)(F)F)c1)N[C@@H]1CCCOc2ccccc21 [Compound 150] | B (Non-selective compounds showed Kv7.4 and/or Kv7.3/7.5 ΔV1/2 higher than 15 mV (letter B in table 3)) | A (Selective compounds showed Kv7.4 and/or Kv7.3/7.5 ΔV1/2 equal to or lower than 15 mV (letter A in table 3))
13 | 1350 | 36.08 | O=C(NCc1ccnc(OCC(F)(F)F)c1)NC1CCSc2ccccc21 (stereo not shown) [Compound 152] | B (Non-selective compounds showed Kv7.4 and/or Kv7.3/7.5 ΔV1/2 higher than 15 mV (letter B in table 3)) | B (Non-selective compounds showed Kv7.4 and/or Kv7.3/7.5 ΔV1/2 higher than 15 mV (letter B in table 3))
14 | 1600 | 47.43 | O=C(NCc1ccnc(OC(F)F)c1)N[C@@H]1CCc2ccc(F)cc21 [Compound 153] | B (Non-selective compounds showed Kv7.4 and/or Kv7.3/7.5 ΔV1/2 higher than 15 mV (letter B in table 3)) | B (Non-selective compounds showed Kv7.4 and/or Kv7.3/7.5 ΔV1/2 higher than 15 mV (letter B in table 3))
15 | 617 | 24.51 | O=C(NCc1ccnc(OCC(F)(F)F)c1)Nc1cccc2c1CCC2 [Compound 154] | A (Selective compounds showed Kv7.4 and/or Kv7.3/7.5 ΔV1/2 equal to or lower than 15 mV (letter A in table 3)) | A (Selective compounds showed Kv7.4 and/or Kv7.3/7.5 ΔV1/2 equal to or lower than 15 mV (letter A in table 3))
16 | 1550 | 15.05 | Cc1ccc2c(c1)[C@@H](NC(=O)NCc1ccnc(OCC(F)(F)F)c1)CC2 [Compound 159] | A (Selective compounds showed Kv7.4 and/or Kv7.3/7.5 ΔV1/2 equal to or lower than 15 mV (letter A in table 3)) | A (Selective compounds showed Kv7.4 and/or Kv7.3/7.5 ΔV1/2 equal to or lower than 15 mV (letter A in table 3))
17 | 926 | 18.2 | O=C(NCc1ccnc(OCC(F)(F)F)c1)N[C@@H]1CCc2ccc(C(F)(F)F)cc21 [Compound 162] | B (Non-selective compounds showed Kv7.4 and/or Kv7.3/7.5 ΔV1/2 higher than 15 mV (letter B in table 3)) | A (Selective compounds showed Kv7.4 and/or Kv7.3/7.5 ΔV1/2 equal to or lower than 15 mV (letter A in table 3))
18 | 1070 | 27.41 | O=C(NCc1ccnc(OCC(F)(F)F)c1)N[C@H]1CCc2ccc(C(F)(F)F)cc21 [Compound 163] | A (Selective compounds showed Kv7.4 and/or Kv7.3/7.5 ΔV1/2 equal to or lower than 15 mV (letter A in table 3)) | A (Selective compounds showed Kv7.4 and/or Kv7.3/7.5 ΔV1/2 equal to or lower than 15 mV (letter A in table 3))
19 | 1240 | 25.3 | COc1cc2c(cc1F)CC[C@H]2NC(=O)NCc1ccnc(OCC(F)(F)F)c1 [Compound 164] | A (Selective compounds showed Kv7.4 and/or Kv7.3/7.5 ΔV1/2 equal to or lower than 15 mV (letter A in table 3)) | A (Selective compounds showed Kv7.4 and/or Kv7.3/7.5 ΔV1/2 equal to or lower than 15 mV (letter A in table 3))
